Measurements published in the kinase profiling compilation of Christmann-Franck et al. (2016).

Key:
Assay in all cases: radiometric filter-binding kinase assay
[1] = target: MAPK12 (human) (UniProt P53778); conditions: compound 100.0 µM; ATP 5 µM
[2] = system: AKT2 (human), P31751 [S474D]; conditions: compound 100.0 µM; ATP 50 µM
[3] = target: PHKG1 (human) (UniProt Q16816); conditions: compound 100.0 µM; ATP 50 µM
[4] = target: IKBKE (human) (UniProt Q14164); conditions: compound 100.0 µM; ATP 50 µM
[5] = target: PRKCA (human) (UniProt P17252); conditions: compound 100.0 µM; ATP 20 µM
[6] = system: SGK1 (human), O00141 [S422D]; conditions: compound 100.0 µM; ATP 20 µM
[7] = target: EPHB4 (human) (UniProt P54760); conditions: compound 100.0 µM; ATP 5 µM
[8] = target: MAPK11 (human) (UniProt Q15759); conditions: compound 100.0 µM; ATP 20 µM
[9] = target: STK33 (human) (UniProt Q9BYT3); conditions: compound 100.0 µM; ATP 50 µM
[10] = target: MARK2 (human) (UniProt Q7KZI7); conditions: compound 100.0 µM; ATP 20 µM
[11] = target: STK11 CAB39 STRADA (human) (UniProt Q9Y376+Q7RTN6+Q15831); conditions: compound 100.0 µM; ATP 20 µM
[12] = target: MAPK3 (human) (UniProt P27361); conditions: compound 100.0 µM; ATP 5 µM
[13] = target: EEF2K (human) (UniProt O00418); conditions: compound 100.0 µM; ATP 5 µM
[14] = target: MAPK8 (human) (UniProt P45983); conditions: compound 100.0 µM; ATP 20 µM
[15] = target: ZAP70 (human) (UniProt P43403); conditions: compound 100.0 µM; ATP 5 µM
[16] = target: MYLK (human) (UniProt Q15746); conditions: compound 100.0 µM; ATP 50 µM
[17] = target: CLK2 (human) (UniProt P49760); conditions: compound 100.0 µM; ATP 5 µM
[18] = target: EPHB3 (human) (UniProt P54753); conditions: compound 100.0 µM; ATP 20 µM
[19] = target: SRPK1 (human) (UniProt Q96SB4); conditions: compound 100.0 µM; ATP 50 µM
[20] = target: FGFR1 (human) (UniProt P11362); conditions: compound 100.0 µM; ATP 20 µM
[21] = target: EPHA2 (human) (UniProt P29317); conditions: compound 100.0 µM; ATP 50 µM
[22] = target: TAOK1 (human) (UniProt Q7L7X3); conditions: compound 100.0 µM; ATP 20 µM
[23] = target: IGF1R (human) (UniProt P08069); conditions: compound 100.0 µM; ATP 5 µM
[24] = target: MAP3K11 (human) (UniProt Q16584); conditions: compound 100.0 µM; ATP 20 µM
[25] = target: MELK (human) (UniProt Q14680); conditions: compound 100.0 µM; ATP 50 µM
[26] = target: MST4 (human) (UniProt Q9P289); conditions: compound 100.0 µM; ATP 20 µM
[27] = target: MAPK10 (human) (UniProt P53779); conditions: compound 100.0 µM; ATP 20 µM
[28] = target: MAPK1 (human) (UniProt P28482); conditions: compound 100.0 µM; ATP 20 µM
[29] = target: MINK1 (human) (UniProt Q8N4C8); conditions: compound 100.0 µM; ATP 50 µM
[30] = target: HIPK3 (human) (UniProt Q9H422); conditions: compound 100.0 µM; ATP 20 µM
[31] = target: CSK (human) (UniProt P41240); conditions: compound 100.0 µM; ATP 20 µM
[32] = target: PTK6 (human) (UniProt Q13882); conditions: compound 100.0 µM; ATP 20 µM
[33] = target: MARK4 (human) (UniProt Q96L34); conditions: compound 100.0 µM; ATP 50 µM
[34] = target: AURKB (human) (UniProt Q96GD4); conditions: compound 100.0 µM; ATP 20 µM
[35] = target: EPHB2 (human) (UniProt P29323); conditions: compound 100.0 µM; ATP 20 µM
[36] = target: MARK3 (human) (UniProt P27448); conditions: compound 100.0 µM; ATP 5 µM
[37] = target: FLT1 (human) (UniProt P17948); conditions: compound 100.0 µM; ATP 20 µM
[38] = target: SYK (human) (UniProt P43405); conditions: compound 100.0 µM; ATP 20 µM
[39] = target: HIPK2 (human) (UniProt Q9H2X6); conditions: compound 100.0 µM; ATP 5 µM
[40] = target: RPS6KA1 KD1 KD2 (human) (UniProt Q15418); conditions: compound 100.0 µM; ATP 50 µM
RPS6KA1 KD1 KD2 (human), sequence (Q15418 whole entry, looked up): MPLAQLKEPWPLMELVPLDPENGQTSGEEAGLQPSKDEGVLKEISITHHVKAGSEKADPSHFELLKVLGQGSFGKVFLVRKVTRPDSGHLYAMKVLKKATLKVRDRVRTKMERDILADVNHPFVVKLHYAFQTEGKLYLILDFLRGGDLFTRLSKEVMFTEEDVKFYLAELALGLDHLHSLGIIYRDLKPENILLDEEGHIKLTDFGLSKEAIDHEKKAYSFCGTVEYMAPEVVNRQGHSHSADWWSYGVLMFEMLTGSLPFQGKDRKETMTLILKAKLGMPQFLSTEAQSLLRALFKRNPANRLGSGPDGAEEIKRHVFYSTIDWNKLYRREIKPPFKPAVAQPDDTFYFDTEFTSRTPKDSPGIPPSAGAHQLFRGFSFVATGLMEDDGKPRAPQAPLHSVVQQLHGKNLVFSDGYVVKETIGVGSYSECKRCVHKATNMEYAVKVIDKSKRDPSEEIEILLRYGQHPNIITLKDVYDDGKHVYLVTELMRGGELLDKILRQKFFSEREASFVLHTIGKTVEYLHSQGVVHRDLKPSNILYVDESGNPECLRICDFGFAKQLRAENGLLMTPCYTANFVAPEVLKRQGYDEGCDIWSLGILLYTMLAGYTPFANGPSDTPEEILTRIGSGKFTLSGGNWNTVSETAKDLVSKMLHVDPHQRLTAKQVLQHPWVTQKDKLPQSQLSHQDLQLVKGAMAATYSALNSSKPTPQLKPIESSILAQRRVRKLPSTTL

MELK (human), sequence (Q14680 whole entry, looked up): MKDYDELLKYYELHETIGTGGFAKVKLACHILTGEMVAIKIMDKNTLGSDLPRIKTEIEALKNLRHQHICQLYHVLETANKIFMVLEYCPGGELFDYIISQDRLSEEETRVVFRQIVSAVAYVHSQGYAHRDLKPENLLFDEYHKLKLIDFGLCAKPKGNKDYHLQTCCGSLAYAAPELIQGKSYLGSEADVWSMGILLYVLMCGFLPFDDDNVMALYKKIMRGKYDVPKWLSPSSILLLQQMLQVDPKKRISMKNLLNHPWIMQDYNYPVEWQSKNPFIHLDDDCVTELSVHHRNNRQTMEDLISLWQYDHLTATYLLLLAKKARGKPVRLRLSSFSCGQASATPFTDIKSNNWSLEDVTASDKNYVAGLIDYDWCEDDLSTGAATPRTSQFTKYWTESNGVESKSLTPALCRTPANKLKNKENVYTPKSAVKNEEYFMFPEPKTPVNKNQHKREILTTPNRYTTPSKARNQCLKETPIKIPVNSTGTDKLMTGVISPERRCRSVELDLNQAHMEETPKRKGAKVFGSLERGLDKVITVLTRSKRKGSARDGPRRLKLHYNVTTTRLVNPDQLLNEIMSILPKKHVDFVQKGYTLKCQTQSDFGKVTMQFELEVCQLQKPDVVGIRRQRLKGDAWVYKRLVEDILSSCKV
EPHB4 (human), sequence (P54760 whole entry, looked up): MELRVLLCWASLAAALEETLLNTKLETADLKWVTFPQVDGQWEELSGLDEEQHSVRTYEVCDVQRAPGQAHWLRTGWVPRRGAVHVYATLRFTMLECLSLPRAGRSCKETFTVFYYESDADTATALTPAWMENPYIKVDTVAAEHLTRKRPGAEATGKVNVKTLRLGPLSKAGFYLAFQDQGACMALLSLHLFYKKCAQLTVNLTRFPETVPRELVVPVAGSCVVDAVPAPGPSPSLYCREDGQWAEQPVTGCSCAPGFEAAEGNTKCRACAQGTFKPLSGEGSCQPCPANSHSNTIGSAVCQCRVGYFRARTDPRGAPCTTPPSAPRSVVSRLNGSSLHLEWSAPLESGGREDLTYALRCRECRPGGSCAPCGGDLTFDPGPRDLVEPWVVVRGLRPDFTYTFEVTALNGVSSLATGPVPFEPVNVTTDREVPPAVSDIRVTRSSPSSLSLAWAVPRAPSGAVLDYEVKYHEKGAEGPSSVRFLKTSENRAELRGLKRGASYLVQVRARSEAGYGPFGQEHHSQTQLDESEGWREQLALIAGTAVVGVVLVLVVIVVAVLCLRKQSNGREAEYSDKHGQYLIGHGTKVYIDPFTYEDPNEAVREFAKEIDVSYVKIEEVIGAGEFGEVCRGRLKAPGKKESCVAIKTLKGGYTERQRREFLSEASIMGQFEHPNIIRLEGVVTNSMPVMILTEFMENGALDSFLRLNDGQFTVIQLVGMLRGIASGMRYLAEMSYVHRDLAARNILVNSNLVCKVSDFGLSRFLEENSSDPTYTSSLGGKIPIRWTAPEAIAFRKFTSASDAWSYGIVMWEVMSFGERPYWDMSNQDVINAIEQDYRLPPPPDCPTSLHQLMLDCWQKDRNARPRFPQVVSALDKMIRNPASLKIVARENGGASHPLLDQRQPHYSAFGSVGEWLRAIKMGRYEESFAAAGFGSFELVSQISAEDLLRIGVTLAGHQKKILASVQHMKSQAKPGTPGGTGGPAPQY
ZAP70 (human), sequence (P43403 whole entry, looked up): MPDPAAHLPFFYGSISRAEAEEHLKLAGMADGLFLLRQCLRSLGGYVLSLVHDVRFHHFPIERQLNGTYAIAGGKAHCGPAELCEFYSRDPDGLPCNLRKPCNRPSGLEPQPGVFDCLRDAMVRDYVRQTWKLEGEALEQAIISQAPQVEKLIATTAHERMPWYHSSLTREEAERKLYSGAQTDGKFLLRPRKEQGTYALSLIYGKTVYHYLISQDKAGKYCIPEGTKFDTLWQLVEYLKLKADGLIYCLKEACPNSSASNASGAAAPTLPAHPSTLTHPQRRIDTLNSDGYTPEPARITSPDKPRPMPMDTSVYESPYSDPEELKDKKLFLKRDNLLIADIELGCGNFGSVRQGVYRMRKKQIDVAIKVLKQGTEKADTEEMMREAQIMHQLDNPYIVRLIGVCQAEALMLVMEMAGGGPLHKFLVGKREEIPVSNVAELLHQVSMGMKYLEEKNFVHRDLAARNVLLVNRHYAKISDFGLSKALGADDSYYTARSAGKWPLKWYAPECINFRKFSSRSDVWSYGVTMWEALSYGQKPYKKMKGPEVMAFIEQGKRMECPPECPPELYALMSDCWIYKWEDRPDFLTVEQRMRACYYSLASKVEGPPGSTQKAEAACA
IGF1R (human), sequence (P08069 whole entry, looked up): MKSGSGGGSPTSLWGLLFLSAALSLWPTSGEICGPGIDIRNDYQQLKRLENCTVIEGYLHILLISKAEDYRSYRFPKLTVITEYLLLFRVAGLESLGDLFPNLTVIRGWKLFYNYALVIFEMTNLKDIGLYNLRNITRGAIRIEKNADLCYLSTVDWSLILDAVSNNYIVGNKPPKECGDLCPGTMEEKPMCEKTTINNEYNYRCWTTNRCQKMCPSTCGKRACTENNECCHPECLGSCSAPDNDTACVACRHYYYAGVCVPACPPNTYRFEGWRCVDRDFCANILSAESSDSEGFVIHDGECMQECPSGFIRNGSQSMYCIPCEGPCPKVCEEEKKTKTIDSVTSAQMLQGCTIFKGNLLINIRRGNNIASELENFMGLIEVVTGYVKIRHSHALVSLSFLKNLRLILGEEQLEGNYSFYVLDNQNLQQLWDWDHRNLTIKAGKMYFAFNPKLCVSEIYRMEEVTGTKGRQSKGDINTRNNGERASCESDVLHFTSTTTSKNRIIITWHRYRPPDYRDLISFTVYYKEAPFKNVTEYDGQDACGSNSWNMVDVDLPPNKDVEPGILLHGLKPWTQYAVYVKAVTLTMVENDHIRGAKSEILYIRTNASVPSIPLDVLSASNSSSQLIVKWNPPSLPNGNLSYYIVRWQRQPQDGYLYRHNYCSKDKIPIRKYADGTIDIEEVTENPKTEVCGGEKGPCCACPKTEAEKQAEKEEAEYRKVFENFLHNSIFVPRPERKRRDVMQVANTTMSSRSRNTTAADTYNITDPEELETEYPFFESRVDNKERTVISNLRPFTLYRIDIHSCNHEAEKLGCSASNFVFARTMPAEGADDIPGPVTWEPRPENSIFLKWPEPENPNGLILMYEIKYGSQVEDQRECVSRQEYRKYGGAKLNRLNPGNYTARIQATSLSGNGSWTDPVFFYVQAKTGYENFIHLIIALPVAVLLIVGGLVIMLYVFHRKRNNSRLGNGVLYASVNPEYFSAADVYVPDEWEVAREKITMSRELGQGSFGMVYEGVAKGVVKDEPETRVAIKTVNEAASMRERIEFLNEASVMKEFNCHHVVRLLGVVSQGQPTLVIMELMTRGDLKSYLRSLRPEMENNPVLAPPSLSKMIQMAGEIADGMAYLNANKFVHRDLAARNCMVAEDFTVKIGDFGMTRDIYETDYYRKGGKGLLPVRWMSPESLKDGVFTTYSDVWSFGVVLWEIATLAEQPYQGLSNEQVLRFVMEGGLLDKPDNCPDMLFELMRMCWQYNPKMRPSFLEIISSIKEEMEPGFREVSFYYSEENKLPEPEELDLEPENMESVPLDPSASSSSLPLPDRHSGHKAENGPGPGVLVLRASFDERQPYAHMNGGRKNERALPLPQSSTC
MAPK1 (human), sequence (P28482 whole entry, looked up): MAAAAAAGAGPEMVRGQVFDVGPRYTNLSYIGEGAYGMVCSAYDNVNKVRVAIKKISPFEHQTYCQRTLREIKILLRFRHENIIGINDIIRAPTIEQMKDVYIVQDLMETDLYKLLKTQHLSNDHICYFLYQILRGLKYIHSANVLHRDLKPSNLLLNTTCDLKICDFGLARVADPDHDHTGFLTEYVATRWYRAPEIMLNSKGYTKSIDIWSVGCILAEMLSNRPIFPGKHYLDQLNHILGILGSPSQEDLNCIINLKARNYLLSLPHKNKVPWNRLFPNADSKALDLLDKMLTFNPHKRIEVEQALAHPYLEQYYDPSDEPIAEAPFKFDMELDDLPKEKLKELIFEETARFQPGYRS
AURKB (human), sequence (Q96GD4 whole entry, looked up): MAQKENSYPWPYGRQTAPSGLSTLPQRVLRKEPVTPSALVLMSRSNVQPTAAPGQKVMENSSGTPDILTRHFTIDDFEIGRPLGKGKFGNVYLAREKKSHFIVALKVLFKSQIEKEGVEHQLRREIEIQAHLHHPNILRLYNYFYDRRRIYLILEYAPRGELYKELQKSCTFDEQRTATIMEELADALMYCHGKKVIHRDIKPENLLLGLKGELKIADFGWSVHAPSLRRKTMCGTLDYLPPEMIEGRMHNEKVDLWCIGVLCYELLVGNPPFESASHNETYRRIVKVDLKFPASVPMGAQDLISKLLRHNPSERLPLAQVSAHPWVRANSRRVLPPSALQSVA

| inhibition [1] | inhibition [2] | inhibition [3] | inhibition [4] | inhibition [5] | inhibition [6] | inhibition [7] | inhibition [8] | inhibition [9] | inhibition [10] | inhibition [11] | inhibition [12] | inhibition [13] | inhibition [14] | inhibition [15] | inhibition [16] | inhibition [17] | inhibition [18] | inhibition [19] | inhibition [20] | also measured | Compound |
| --- | --- | --- | --- | --- | --- | --- | --- | --- | --- | --- | --- | --- | --- | --- | --- | --- | --- | --- | --- | --- | --- |
| 6% | 16% | 8% | 22% | 2% | 18% | 6% | 23% | 12% | 0% | 6% | 3% | 7% | 0% | 0% | 13% | 48% | 0% | 0% | 41% | inhibition [21]: 9%; inhibition [22]: 3%; inhibition [23]: 28%; inhibition [24]: 7%; inhibition [25]: 1%; inhibition [26]: 13%; inhibition [27]: 0%; inhibition [28]: 8%; inhibition [29]: 28%; inhibition [30]: 0%; inhibition [31]: 8%; inhibition [32]: 30%; inhibition [33]: 0%; inhibition [34]: 0%; inhibition [35]: 0%; inhibition [36]: 11%; inhibition [37]: 39%; inhibition [38]: 20%; inhibition [39]: 61%; inhibition [40]: 16% | O=c1cc(-c2ccccc2F)nc2[nH]ccn12 |
| 0% | 14% | 44% | 3% | 2% | 1% | 5% | 23% | 21% | 0% | 0% | 10% | 11% | 0% | 9% | 36% | 0% | 5% | 14% | 14% | inhibition [21]: 31%; inhibition [22]: 0%; inhibition [23]: 0%; inhibition [24]: 40%; inhibition [25]: 2%; inhibition [26]: 7%; inhibition [27]: 0%; inhibition [28]: 10%; inhibition [29]: 25%; inhibition [30]: 0%; inhibition [31]: 23%; inhibition [32]: 30%; inhibition [33]: 13%; inhibition [34]: 0%; inhibition [35]: 14%; inhibition [36]: 12%; inhibition [37]: 31%; inhibition [38]: 22%; inhibition [39]: 7%; inhibition [40]: 23% | O=C(Nc1cnc2[nH]ccn2c1=O)c1ccccc1 |
| 24% | 22% | 68% | 23% | 0% | 16% | 11% | 22% | 5% | 18% | 0% | 13% | 13% | 2% | 16% | 0% | 79% | 32% | 25% | 45% | inhibition [21]: 0%; inhibition [22]: 0%; inhibition [23]: 11%; inhibition [24]: 17%; inhibition [25]: 17%; inhibition [26]: 16%; inhibition [27]: 11%; inhibition [28]: 7%; inhibition [29]: 58%; inhibition [30]: 0%; inhibition [31]: 29%; inhibition [32]: 1%; inhibition [33]: 0%; inhibition [34]: 61%; inhibition [35]: 4%; inhibition [36]: 38%; inhibition [37]: 69%; inhibition [38]: 31%; inhibition [39]: 49%; inhibition [40]: 24% | CC(=O)Nc1nc2cnc(-c3ccccc3)cn2n1 |
